Laboratory results published in patent publication US8178506B2, “Oligomeric compounds and compositions for use in modulation of small non-coding RNAs” (Regulus Therapeutics Inc., priority 2003, dated 2012).
In the oligonucleotide strings, read from the 5' end, every base follows the letter of its sugar. An asterisk marks phosphorothioate; unmarked linkages are phosphodiester. Other units and linkages are bracketed, terminal groups are in braces. A string of capitals states the bases alone. e = 2'-O-(2-methoxyethyl) (MOE); [5mC] = 5-methylcytosine; d = 2'-deoxy (DNA)

How the values were obtained:
[1] = tested on: preadipocytes / differentiating adipocytes; assay: Adipocyte differentiation assay, markers taken together; assay type: cell-based, human
HepG2 cells = assay: Insulin signaling assay in HepG2 cells, marker genes taken together; assay type: cell-based, human; conditions: for expression of the IGFBP-1, PEPCK-c and follistatin marker genes / mRNA levels of the IGFBP-1 and follistatin genes: HepG2, 1 nM insulin; for expression of the IGFBP-1, PEPCK-c and follistatin marker genes: 100 nM
mir-30a pri-miRNA = assay: mir-30a luciferase reporter (pGL3C-M30-4X) assay in 293T cells; assay type: cell-based, human; conditions: 150 nM oligomeric compound, then mir-30a pri-miRNA mimic 200 nM, pGL3C-M30-4X normalized to pRL-CMV
Excerpt: In one embodiment of the invention, oligomeric compounds targeting the hairpin structure of mir-30a pri-miRNA were designed and tested for their effects on miRNA signaling in 293T cells (American Type Culture Collection (Manassas, Va.)).
A synthetic DNA fragment comprised of four tandem repeats of the target site for mir-30a was cloned into the vector pGL3-C (purchased from Promega Corp., Madison Wis.) at the unique XbaI site (pGL3C-M30-4X). This places the target site in the 3′UTR of the luciferase reporter vector. An oligomeric compound mimicking the mir-30a pri-miRNA ([…] […], herein incorporated as SEQ ID NO: 1749) was in vitro transcribed using T7 RNA polymerase and a DNA template produced by PCR (the T7 promoter is shown in bold).
On the day prior to the experiment 24-well plates were seeded with 293T cells at 50% confluency. The following morning cells were treated with oligomeric compounds targeted to the mir-30a pri-miRNA mimic. All of the compounds are 20 nucleobases in length having either a phosphorothioate backbone throughout (PS) or a phosphodiester backbone throughout (PO). […] All cytidine residues are 5-methylcytidines. The remaining compounds in the table have 2′-methoxyethoxy (MOE) nucleotides throughout with either a phosphorothioate (PS) or phosphodiester (PO) internucleoside linkages.
Cells were washed once with PBS then oligomeric compounds were added to triplicate wells at 150 nM in OPTI-MEM™ media and 4.5 μl/ml LIPOFECTIN™ reagent (Invitrogen Corporation, Carlsbad, Calif.). After 3 hours, the media was removed, and the cells were treated with the mir-30a pri-miRNA mimic at 200 nM in OPTI-MEM™ with 6 μl/ml LIPOFECTIN™ reagent. After 3 hours the media was removed from the cells. The reporter plasmid, pGL3C-M30-4X, was then transfected using SuperFect reagent. 20 μg of pGL3C-M30-4X and 2 μg of pRL-CMV, a plasmid expressing Renilla luciferase, were suspended in 600 μL of serum-free DMEM to which 120 μl of Superfect was added. After a 5 minute incubation, 6 mls of DMEM+10% FCS was added. 125 μL of the plasmid/SuperFect suspension was added to each well. After a 2 hour incubation cells were washed and fresh growth media added. Cells were incubated overnight.
The following morning the media was removed and the cells were lysed in 120 μL passive lysis buffer (PLB; Promega). 40 μL of the lysate was then assayed for Photinus (PL) and Renilla (RL) luciferases using a Dual Luciferase Assay kit (Promega) according to the manufacturer's protocol. The results below are given as percent pGL3C-M30-4× expression (PL) normalized to pRL-CMV expression (RL). The 20-nucleobase oligonucleotide random-mer ISIS Number 29848 was used as a negative control.

adipocytes = assay: Triglyceride accumulation assay in adipocytes; assay type: cell-based, human; conditions: preadipocytes, 250 nM, day nine
leptin = assay: Leptin secretion by adipocytes (ELISA); assay type: cell-based, human; conditions: preadipocytes, 250 nM, day nine
Procedure: Leptin secretion into the medium in which adipocytes are cultured is measured by protein ELISA. On day nine post-transfection, 96-well plates are coated with a monoclonal antibody to human leptin (R&D Systems, Minneapolis, Minn.) and left at 4° C. overnight. The plates are blocked with bovine serum albumin (BSA), and a dilution of the treated adipoctye medium is incubated in the plate at room temperature for approximately 2 hours. After washing to remove unbound components, a second monoclonal antibody to human leptin (conjugated with biotin) is added. The plate is then incubated with strepavidin-conjugated horse radish peroxidase (HRP) and enzyme levels are determined by incubation with 3, 3′,5,5′-tetramethlybenzidine, which turns blue when cleaved by HRP. The OD450 is read for each well, where the dye absorbance is proportional to the leptin concentration in the cell lysate.
Leptin is also a marker for differentiated adipocytes. In the adipocyte assay, leptin secretion into the media above the differentiated adipocytes was measured by protein ELISA. Cell growth, transfection and differentiation procedures were carried out as described for the Triglyceride accumulation assay (see below). On day nine post-transfection, 96-well plates were coated with a monoclonal antibody to human leptin (R&D Systems, Minneapolis, Minn.) and left at 4° C. overnight. The plates were blocked with bovine serum albumin (BSA), and a dilution of the media was incubated in the plate at RT for 2 hours. After washing to remove unbound components, a second monoclonal antibody to human leptin (conjugated with biotin) was added. The plate was then incubated with strepavidin-conjugated horseradish peroxidase (HRP) and enzyme levels are determined by incubation with 3, 3′, 5,5′-Tetramethlybenzidine, which turns blue when cleaved by HRP. The OD450 was read for each well, where the dye absorbance is proportional to the leptin concentration in the cell lysate. Results are expressed as a percent±standard deviation relative to transfectant-only controls.

PEPCK-c = PEPCK-c mRNA expression in HepG2 cells; assay type: cell-based, human; conditions: 100 nM; for reduction of PEPCK-c mRNA expression: HepG2, 1 nM insulin
T47D cells = assay: Caspase-3 activity assay (apoptosis) in T47D cells; conditions: caspase assay, 200 nM; conclusion from Tables 9-12
HuVECs = assay: Endothelial tube formation assay in HuVECs; conditions: 75 nM
Procedure: In some embodiments, HUVECs are used to measure the effects of oligomeric compounds of the invention on endothelial tube formation activity. The tube formation assay is performed using an in vitro Angiogenesis Assay Kit (Chemicon International, Temecula, Calif.).
Untreated control cells receive LIPOFECTIN™ only.
Approximately fifty hours after transfection, cells are transferred to 96-well plates coated with ECMatrix™ (Chemicon International). Under these conditions, untreated HUVECs form tube-like structures. After an overnight incubation at 37° C., treated and untreated cells are inspected by light microscopy. Tube formation in cells treated with oligomeric compounds is compared to that in untreated control cells. Individual wells are assigned discrete scores from 1 to 5 depending on the extent of tube formation. A score of 1 refers to a well with no tube formation while a score of 5 is given to wells where all cells are forming an extensive tubular network.
In one embodiment, primary human umbilical vein endothelial cells (HuVECs) were used to measure the effects of oligomeric compounds targeted to miRNAs on tube formation activity. HuVECs were routinely cultured in EBM (Clonetics Corporation, Walkersville, Md.) supplemented with SingleQuots supplements (Clonetics Corporation, Walkersville, Md.). […] HuVECs are plated at 3000 cells/well in 96-well plates. One day later, cells are transfected with oligomeric compounds. The tube formation assay is performed using an in vitro Angiogenesis Assay Kit (Chemicon International, Temecula, Calif.).
ISIS 29248 and ISIS 196103 are chimeric 5-10-52′-MOE gapmer oligonucleotides. […] All cytidine residues are 5-methylcytidines. ISIS 342672 (SEQ ID NO: 789) contains 13 mismatches with respect to the mature mir-143 miRNA, and was also used as a negative control. ISIS 342672 is a uniform 2′-MOE phosphorothioate oligomeric compound 22 nucleotides in length. All cytidine residues are 5-methylcytidines.
Oligomeric compound was mixed with LIPOFECTIN™ (Invitrogen Life Technologies, Carlsbad, Calif.) in OPTI-MEM™ (Invitrogen Life Technologies, Carlsbad, Calif.) to achieve a final concentration of 75 nM of oligomeric compound and 2.25 μg/mL LIPOFECTIN™. Before adding to cells, the oligomeric compound, LIPOFECTIN™ and OPTI-MEM™ were mixed thoroughly and incubated for 0.5 hrs. Untreated control cells received LIPOFECTIN™ only. […] Compounds targeted to miRNAs were tested in triplicate, and ISIS 29848 was tested in up to six replicates. […] 100 μL of full growth medium was added to each well. Fifty hours after transfection, cells are transferred to 96-well plates coated with ECMa-trix™ (Chemicon Inter-national). Under these conditions, untreated HuVECs form tube-like structures.

ob/ob mice = assay: ob/ob mice: plasma parameters, food consumption, marker gene mRNA; assay type: in vivo, mouse; conditions: six week old ob/ob mice, 25 mg/kg twice weekly for four weeks
Excerpt: Leptin is a hormone produced by fat cells that regulates appetite. Deficiencies in this hormone in both humans and non-human animals leads to obesity. ob/ob mice have a mutation in the leptin gene which results in obesity and hyperglycemia. As such, these mice are a useful model for the investigation of obesity and diabetes and treatments designed to treat these conditions. ob/ob mice have higher circulating levels of insulin and are less hyperglycemic than db/db mice, which harbor a mutation in the leptin receptor. In accordance with the present invention, the oligomeric compounds of the invention are tested in the ob/ob model of obesity and diabetes.
Seven-week old male C57B1/6J-Lep ob/ob mice (Jackson Laboratory, Bar Harbor, Me.) are fed a diet with a fat content of 10-15% and are subcutaneously injected with the oligomeric compounds of the invention or a control compound at a dose of 25 mg/kg two times per week for 4 weeks. Saline-injected animals, leptin wildtype littermates (i.e. lean littermates) and ob/ob mice fed a standard rodent diet serve as controls. After the treatment period, mice are sacrificed and target levels are evaluated in liver, brown adipose tissue (BAT) and white adipose tissue (WAT). RNA isolation and target RNA expression level quantitation are performed as described by other examples herein.
To assess the physiological effects resulting from modulation of target, the ob/ob mice are evaluated at the end of the treatment period for serum lipids, serum free fatty acids, serum cholesterol (CHOL), liver triglycerides, fat tissue triglycerides and liver enzyme levels. Hepatic steatosis, or clearing of lipids from the liver, is assessed by measuring the liver triglyceride content. Hepatic steatosis is assessed by routine histological analysis of frozen liver tissue sections stained with oil red O stain, which is commonly used to visualize lipid deposits, and counterstained with hematoxylin and eosin, to visualize nuclei and cytoplasm, respectively.
The effects of target modulation on glucose and insulin metabolism are evaluated in the ob/ob mice treated with the oligomeric compounds of the invention. Plasma glucose is measured at the start of the treatment and after 2 weeks and 4 weeks of treatment. Plasma insulin is similarly measured at the beginning of the treatment, and following at 2 weeks and at 4 weeks of treatment. Glucose and insulin tolerance tests are also administered in fed and fasted mice. Mice receive intraperitoneal injections of either glucose or insulin, and the blood glucose and insulin levels are measured before the insulin or glucose challenge and at 15, 20 or 30 minute intervals for up to 3 hours.
The ob/ob mice that receive treatment are evaluated at the end of the treatment period for the effects of target modulation on the expression of genes that participate in lipid metabolism, cholesterol biosynthesis, fatty acid oxidation, fatty acid storage, gluconeogenesis and glucose metabolism. These genes include, but are not limited to, HMG-CoA reductase, acetyl-CoA carboxylase 1 and acetyl-CoA carboxylase 2, camitine palmitoyltransferase I and glycogen phosphorylase, glucose-6-phosphatase and phosphoenolpyruvate carboxykinase 1, lipoprotein lipase and hormone sensitive lipase. mRNA levels in liver and white and brown adipose tissue are quantitated by real-time PCR as described in other examples herein, employing primer/probe sets that are generated using published sequences of each gene of interest.
As described herein, leptin-deficient (ob/ob) mice, leptin receptor-deficient (db/db) mice and diet-induced obesity (DIO) mice are used to model obesity and diabetes. In accordance with the present invention, oligomeric compounds targeting mir-143, mir-131 (also known as mir-9) and mir-203 were tested in the ob/ob and db/db models. […]

ACAGGCCGGGACAAGTGCAATA (anti-miR; chemistry not fully specified) [ISIS 327897, uniform 2′-MOE PS; targets mir-92-1]
5 markers of adipocyte differentiation ([1]; differentiating adipocytes, % of UTC (Table 75)): significant reduction in expression of 4 of the 5 markers of differentiation | expression of the IGFBP-1 and follistatin marker genes (HepG2 cells; HepG2, basal (no insulin)): increased expression of the IGFBP-1 and follistatin marker genes

328086 (antisense e[5mC]*eA*eT*e[5mC]*eT*dG*dT*dG*dG*d[5mC]*dT*dT*d[5mC]*dA*d[5mC]*eA*eG*e[5mC]*eT*eT) [compound 328086]
percent control luciferase expression (mir-30a pri-miRNA): 95 percent control

328077 (antisense CCCATCTGTGGCTTCACAGC; all 2'-MOE, all phosphorothioate, methylation of C not given here) [compound 328077]
percent control luciferase expression (mir-30a pri-miRNA): 70 percent control

328076 (antisense eG*e[5mC]*eT*eT*e[5mC]*dA*d[5mC]*dA*dG*d[5mC]*dT*dT*d[5mC]*d[5mC]*dA*eG*eT*e[5mC]*eG*eA) [compound 328076]
percent control luciferase expression (mir-30a pri-miRNA): 57 percent control

328078 (antisense e[5mC]*e[5mC]*e[5mC]*eA*eT*d[5mC]*dT*dG*dT*dG*dG*d[5mC]*dT*dT*d[5mC]*eA*e[5mC]*eA*eG*e[5mC]) [compound 328078]
percent control luciferase expression (mir-30a pri-miRNA): 63 percent control

328080 (antisense TGAAAGCCCATCTGTGGCTT; all 2'-MOE, all phosphorothioate, methylation of C not given here) [compound 328080]
percent control luciferase expression (mir-30a pri-miRNA): 72 percent control

328075 (antisense GCTTCACAGCTTCCAGTCGA; all 2'-MOE, all phosphorothioate, methylation of C not given here) [compound 328075]
percent control luciferase expression (mir-30a pri-miRNA): 55 percent control

TCACAAGTTAGGGTCTCAGGGA [ISIS 327939]
triglyceride accumulation (adipocytes): decrease in triglyeride accumulation | expression of the four adipocyte differentiation hallmark genes ([1]; preadipocytes, 250 nM, day nine): decrease in the expression of all four adipocyte differentiation hallmark genes | Leptin (secretion) (leptin): significant increase in leptin secretion | expression of the IGFBP-1, PEPCK-c and follistatin marker genes (HepG2 cells): increased expression of the IGFBP-1, PEPCK-c and follistatin marker genes

ISIS 328765: oligomeric compound targeting mir-215 (antisense eG*eA*e[5mC]*eA*eA*dA*d[5mC]*dT*d[5mC]*dA*dG*d[5mC]*dT*dA*dT*eA*eT*eT*eG*eT)
mRNA levels of the IGFBP-1 and follistatin genes (HepG2 cells): also reduced | reduction of PEPCK-c mRNA expression (PEPCK-c): 27%

ISIS 328377: 5-10-5 2′-MOE gapmer PS; targets hypothetical miRNA-030 pri-miRNA (eT*e[5mC]*eA*e[5mC]*eT*d[5mC]*d[5mC]*dT*dA*dA*dA*dG*dG*dT*dT*e[5mC]*eA*eA*eG*eT)
apoptosis in T47D cells (T47D cells): prevent or have a protective effect from apoptosis | expression of the IGFBP-1, PEPCK-c and follistatin marker genes (HepG2 cells): increased expression of the IGFBP-1, PEPCK-c and follistatin marker genes

TAGCTGGTTGAAGGGGACCAA (anti-miR; chemistry not fully specified) [ISIS 327925, uniform 2′-MOE PS; targets mir-133b]
tube formation (HuVECs): suppressed tube formation | expression of the IGFBP-1, PEPCK-c and follistatin marker genes (HepG2 cells): increased expression of the IGFBP-1, PEPCK-c and follistatin marker genes

ISIS 328761: oligomeric compound targeting hypothetical mir-138 (antisense eG*e[5mC]*eA*eG*eG*d[5mC]*dT*dA*dA*dA*dA*dG*dA*dA*dA*eT*eA*eA*eG*e[5mC])
mRNA levels of the IGFBP-1 and follistatin genes (HepG2 cells): also reduced | reduction of PEPCK-c mRNA expression (PEPCK-c): 45% | decrease in PEPCK-c mRNA (PEPCK-c; HepG2, basal (no insulin)): 52%

GAAACCCAGCAGACAATGTAGCT (anti-miR; chemistry not fully specified) [ISIS 345384, PS 2′-MOE 5-10-8 gapmer; targets mir-221]
plasma glucose levels in the fed state (ob/ob mice): reductions in plasma glucose levels in the fed state at weeks two and four

CAGCCGCTGTCACACGCACAG (anti-miR; chemistry not fully specified) [ISIS 327959, uniform 2′-MOE PS; targets mir-210]
tube formation (HuVECs): suppressed tube formation | IGFBP-1 and PEPCK-c marker genes (HepG2 cells; HepG2, basal (no insulin)): increases in the IGFBP-1 and PEPCK-c marker genes
